Data set [1] concerns motor neurons plated on astrocyte monolayers. Kind of data set: Motor neuron survival in astrocyte-motor neuron co-cultures. In kind it is cell-based, rat. The conditions noted are these: for Motor neuron survival, percentage of control: co-cultures treated with NGF, mean±SD. The method, then: Cell cultures and treatments. […] Astrocytes were plated at a density of 2×10^4 cells/cm^2 and maintained in DMEM supplemented with 10% fetal bovine serum, HEPES (3.6 g/l), penicillin ([…]) and streptomycin (100 μg/ml).
For co-culture experiments, motor neurons were plated on astrocyte monolayers at a density of 300 cells/cm^2 and maintained in L15 medium supplemented with 0.63 mg/ml bicarbonate, 5 μg/ml insulin, 0.1 mg/ml conalbumin, 0.1 mM putrescine, 30 nM sodium selenite, 20 nM progesterone, 20 mM glucose, 100 IU/ml penicillin, 100 μg/ml streptomycin, and 2% horse serum. Drugs and blocking antibodies were added 3 h after plating at the indicated concentrations.
Treatments with peroxynitrite and LPS. Peroxynitrite was generously provided by Dr. Rafael Radi (UDELAR, Uruguay) and its concentration determined spectrophotometrically at 302 nm (e=1700 M^−1 cm^−1). Confluent astrocyte monolayers were washed with Dulbecco's phosphate-buffered saline (PBS), supplemented with 0.8 mM MgCl2, 1 mM CaCl2, and 5 mM glucose, and then incubated in 1 ml of 50 mM Na2HPO4, 90 mM NaCl, 5 mM KCl, 0.8 mM MgCl2, 1 mM CaCl2, and 5 mM glucose, pH 7.4. Finally, three additions of 5 μL bolus of peroxynitrite were made to reach the final concentration of 0.5 mM. Five minutes after peroxynitrite exposure, the buffer was removed and replaced with L15 medium, supplemented as described above. In co-culture experiments, motor neurons were plated 1 h after peroxynitrite exposure. […] LPS (from E. coli 026-B6 Cat. No L2654 Sigma) was directly applied to astrocyte monolayers 24 h before and immediately after plating of motor neurons in coculture experiments.

Data set [2] has as its system pure motor neuron cultures. Kind of data set: Motor neuron survival in pure motor neuron cultures maintained with GDNF. In kind it is cell-based, rat. The settings on record: for Motor neuron survival with peroxynitrite-treated neurotrophin: without exogenous nitric oxide, GDNF 1 ng/ml, 48 h. The method, then:
Purified motor neuron cultures were plated at a density of 300 cells/cm^2 in dishes precoated with polyornithinelaminin and maintained in Neurobasal medium supplemented with 2% horse serum, […] L-glutamate, 25 μM β-mercaptoethanol, 0.5 mM L-glutamine, and 2% B-27 supplement (Gibco-Invitrogen). Blocking antibodies were added 3 h after plating at the indicated dilutions. The generation of a low steady state concentration (<50 nM) of nitric oxide was generated by the spontaneous deassociation of 10 μM DETA-NONate (Cayman).
To assess the pro-apoptotic activity of conditioned media, astrocyte monolayers were incubated for 24 h in Neurobasal medium supplemented as described above, and that medium immediately used to replace the medium of pure motor neuron cultures established 24 h before. Blocking antibodies and DETA-NONOate were added to the conditioned media and motor neuron survival determined after 48 h.
To assess the pro-apoptotic activity in spinal cord extracts, lumbar cords were dissected from 90 day-old G93A mice or non-transgenic littermates over ice under sterile conditions. To 100 mg of tissue were added 0.4 ml of PBS containing 3 mM EGTA, 1 mM EDTA, 0.5 μg/ml aprotinin, 0.5 μg/ml pepstatin and 0.1 mM PMSF at 0° C., and the tissue was then homogenized under sterile conditions. Homogenates were centrifuged at 40,000 g for 1 hr and the clear supernatants collected and kept at −80° C. until used. Aliquots were added to motor neuron cultures to reach a final protein concentration of 0.5 μg/ml. In all cases, blocking antibodies and drugs were added 3 h after motor neuron plating. The generation of a steady state concentration (<50 nM) of nitric oxide was obtained by the spontaneous disassociation of 10 μM NOC-18 (Dojindo, Gaithersburg).
Cell counts. Motor neuron survival was assessed by directly counting all cells displaying intact neurites longer than 4 cells in diameter following immunostaining against p 75NTR Counts were performed over an area of 2.76 cm^2 in the center of 35 mm dishes or in an area measuring 0.90 cm^2 along a diagonal in 24-well plates (Cassina et al., 2002). The mean density of motor neurons in control cocultures was 90±4 cells/cm^2.
Protocol for preparation of muscle extracts and western blotting. Quadriceps muscles were dissected from symptomatic G93A SOD1 or non transgenic littermate mice over ice under sterile conditions. To 1 g of tissues was added 4 ml of PBS containing 3 mM EGTA, 1 mM EDTA, 0.5 mg/ml aprotinin, 0.5 mg/ml pepstatin and 0.1 mM PMSF at 0° C., and the tissue was homogenized under sterile conditions. Homogenates were centrifuged at 40,000 g for 1 hr and the clear supernatants collected and kept at −80° C. until used. Quadriceps were homogenized in lysis buffer containing 2 mM EDTA, 1% SDS, 1 mM PMSF, 10 μg/ml aprotinin, 1 μg/ml leupeptin and 0.5 mM sodium vanadate. Protein quantification was performed using the BCA Protein Assay Reagent kit (Pierce Biotechnology). The samples were prepared in Laemmli buffer supplemented with […] and proteins were transferred to nitrocellulose membrane (Amersham). Membranes were blocked for 2 h in blocking buffer (5% BSA, 0.1% Tween 20 in Tris-buffered saline (TBS), pH 7.4) followed by an over-night incubation with the primary antibody diluted in blocking buffer. […]

For data set [3], the system named is cultured spinal cord astrocytes. Kind of data set: ELISA determination of NGF secreted by cultured spinal cord astrocytes. The conditions noted are these: peroxynitrite 0.5 mM. In kind it is cell-based, rat. The procedure: Cell cultures and treatments. Primary astrocyte cultures were prepared from the spinal cords of rats aged 1-2 days according to the procedures of Saneto and De Vellis (1987), with minor modifications (Cassina et al., 2002). Astrocytes were plated at a density of 2×10^4 cells/cm^2 and maintained in DMEM supplemented with 10% fetal bovine serum, HEPES (3.6 g/l), penicillin ([…]) and streptomycin (100 μg/ml). The astrocyte monolayers were >98% pure as determined by GFAP immunoreactivity and were devoid of OX42-positive microglial cells.
Treatments with peroxynitrite and LPS. Peroxynitrite was generously provided by Dr. Rafael Radi (UDELAR, Uruguay) and its concentration determined spectrophotometrically at 302 nm (e=1700 M^−1 cm^−1). Confluent astrocyte monolayers were washed with Dulbecco's phosphate-buffered saline (PBS), supplemented with 0.8 mM MgCl2, 1 mM CaCl2, and 5 mM glucose, and then incubated in 1 ml of 50 mM Na2HPO4, 90 mM NaCl, 5 mM KCl, 0.8 mM MgCl2, 1 mM CaCl2, and 5 mM glucose, pH 7.4. Finally, three additions of 5 μL bolus of peroxynitrite were made to reach the final concentration of 0.5 mM. […]
Determination of NGF/proNGF. The NGF protein concentration in the culture medium from astrocytes or spinal cord extracts was quantified using the NGF Emax ImmunoAssay System kit (Promega) following the manufacturer's instructions.

Data set [4] has as its system G93A SOD-1 transgenic mice. Description: ALS-like disease progression and survival after systemic immunization against NGF. In kind it is in vivo. The source says:
Systemic immunization against NGF on ALS-like disease progression and survival in transgenic mouse overexpressing mutant G93A-SOD1 gene. Animals. The transgenic mouse line overexpressing mutant G93A-SOD1 gene [TgN(SOD1-G93A)1Gur, a high expression mouse line] and the mating pairs were purchased from Jackson laboratory (Bar Harbor, Me., USA). Mice were housed and bred as described previously (Gurney et al. 1994) in accordance with the Institutional Animal Care guidelines.
Immunization protocol. Adult, female, 40-50 day-old mice, initially weighing 18-24 g, were used for these experiments. Mice were group-housed 5 mice per cage and allowed free access to food and water. For testing, a total of 10 mice per group were autoimmunized against NGF. Each received […] of 25 μg of 2.5S mouse NGF (Harlam, USA) in 0.1 ml of a suspension of aluminum phosphate used as adjuvant. A second injection of 2.5S NGF (50 μg) in the same adjuvant was given 3 weeks later. Non-transgenic and vehicle-injected mice served as control animals for survival tests.
Analysis of ALS-like disease progression and survival in transgenic mouse. Mice were examined daily for paralysis, disease progression and survival analysis. The initial symptoms of hind leg paralysis or failure to remain suspended in an inverted grid were considered as the disease progression threshold. Mice were killed at terminal stage, i.e. severely paralysis and inability to seek food and water.

`COC(=O)CC[C@H](NC(=O)[C@H](CC(=O)OC)NC(=O)OCc1ccccc1)C(=O)N[C@H](C(=O)N[C@@H](CC(=O)OC)C(=O)CF)C(C)C` [DEVD-fmk]: the “Prevention of NGF-induced motor neuron death by caspase inhibitors” value in data set [1] (co-culture, 10 μM added every 24 hours) is given as “prevented”.
As to `CC(=N)NCCCC[C@H](N)C(=O)O` [LNIL, L-N6-(1-Iminoethyl)-lysine], the “Prevention of motor neuron apoptosis induced by NGF” value (shortened to “Prevention … by NGF”) in data set [1] (co-culture, 10 μM, 72 h) is listed as “significantly prevented”.
`CCCNC(=N)NCCC[C@H](N)C(=O)O` [NPLA, N5[Imino(propylamino)methyl]-Lornithine; Nu-Propyl-L-arginine]: the “Prevention … by NGF” value in data set [1] (co-culture, 10 μM, 72 h) is given as “significantly prevented”. Besides, the “Motor neuron survival, percentage of control” value in data set [1] (inhibitor 10 μM, 72 h) is given as 110.4±9.2%.
Turning to `[N]=O` [Nitric oxide, reference compound], the “Motor neuron survival, nitric oxide alone” value in data set [2] (<50 nM from 10 μM NOC-18, without NGF) was “did not affect motor neuron survival”.
Take `FC(F)(F)c1ccccc1-n1ccnc1` [TRIM, 1-(2-Trifluoromethylphenyl)imidazole]: the “Prevention … by NGF” value in data set [1] (co-culture, 10 μM, 72 h) was “significantly prevented”.
Consider `N=C(N)NN` [aminoguanidine], for which the “Prevention … by NGF” value in data set [1] (co-culture, 50 μM, 72 h) is recorded as “significantly prevented”. In addition, the “Motor neuron survival, percentage of control” value in data set [1] (inhibitor 50 μM, 72 h) worked out at 87.0±8.0%.
For `O=NOO` [peroxynitrite], the “Increase of NGF secretion to the culture medium” value in data set [3] (24 hours after treatment, LPS 1 μg/ml) is given as about 9 fold. In data set [3] (after 3 days), the “NGF concentration in conditioned culture media versus controls” value amounted to 5 fold.
Regarding `Oc1nc(O)c2nc(O)[nH]c2n1` [urate], the “Prevention of the effects of NGF on motor neurons” value in data set [1] (co-culture, 200 μM, 72 h) was “prevented”.

B1: peroxynitrite-treated NGF: NGF oxidised by peroxynitrite, forming high molecular weight NGF aggregates (protein)
chain: SSTHPVFHMGEFSVCDSVSVWVGDKTTATDIKGKEVTVLAEVNINNSVFRQYFFETKCRASNPVESGCRGIDSKHWNSYCTTTHTFVKALTTDEKQAAWRFIRIDTACVCVLSRKATRRG
Turning to B1, the “Motor neuron survival with peroxynitrite-treated neurotrophin” value in data set [2] is listed as “Decreased motor neuron survival”.

B2: NGF: mouse NGF (2.5S) from Harlan; nerve growth factor, also the immunogen in aluminum phosphate adjuvant (protein)
chain: B1 chain
As for B2, the “Tolerability of NGF autoimmunization” value in data set [4] (all NGF autoimmunized mice) is “gained weight and did not display any signs of discomfort”. Also, in data set [4] (female G93A mice, NGF in aluminum phosphate s.c., in average), the “Delay of survival versus mice injected with adjuvant only” value fell in the range of 10 to 15 days. In data set [4] (in most of the NGF autoimmunized mice), the Disease onset result is “delayed”. Further, the “Motor neuron apoptosis in the presence of nitric oxide” value in data set [2] (NGF 100 ng/ml, nitric oxide <50 nM from 10 μM NOC-18) is “induce motor neuron apoptosis”. Moreover, in data set [2] (NGF 100 ng/ml, no nitric oxide donor), the “Survival of motor neurons maintained with GDNF” value is recorded as “no effect”. Besides, the “Motor neurons with fewer neurites, immunoreactive for nitrotyrosine and cleaved caspase-3” value in data set [1] (NGF 100 ng/ml, after 24 h in culture) is on record as “Approximately 50%”. For the same molecule, the “Survival of motor neurons cultured on unstimulated astrocytes” value in data set [1] (NGF 0.1-100 ng/ml, 72 h) is recorded as “reduced in a dose-dependent manner”. In addition, the “Motor neuron survival after pre-incubation of the astrocyte monolayer” value in data set [1] (NGF removed before neuron plating) is “no effect”. Also, the “Subset of motor neurons vulnerable to NGF in culture” value in data set [1] (co-cultures) is reported as about 40%.

B3: BDNF treated with peroxynitrite: brain-derived neurotrophic factor treated with peroxynitrite by the identical protocol (protein, UniProt P23560 129-247, looked up)
Neurotrophic factor BDNF: HSDPARRGELSVCDSISEWVTAADKKTAVDMSGGTVTVLEKVPVSKGQLKQYFYETKCNPMGYTKEGCRGIDKRHWNSQCRTTQSYVRALTMDSKKRIGWRFIRIDTSCVCTLTIKRGR
modifications: Neurotrophic factor BDNF peroxynitrite-treated
notes: brain-derived neurotrophic factor treated with peroxynitrite by the identical protocol
With B3, in data set [2], the “Motor neuron survival with peroxynitrite-treated neurotrophin” value is reported as “induces motor neuron apoptosis”.

Values taken from US20100183645A1, “ACTIVE OR PASSIVE IMMUNIZATION AGAINST PROAPOPTOTIC NEUROTROPHINS FOR THE TREATMENT AND/OR PREVENTION OF NEURODEGENERATIVE DISEASES” (INSTITUT PASTEUR, priority 2003, published 2010).
